One series deals with T1, COX-2 (Homo sapiens, UniProt P35354).
T1 construct: host or cells: Sf21 insect cells
T1 sequence (P35354 18-604): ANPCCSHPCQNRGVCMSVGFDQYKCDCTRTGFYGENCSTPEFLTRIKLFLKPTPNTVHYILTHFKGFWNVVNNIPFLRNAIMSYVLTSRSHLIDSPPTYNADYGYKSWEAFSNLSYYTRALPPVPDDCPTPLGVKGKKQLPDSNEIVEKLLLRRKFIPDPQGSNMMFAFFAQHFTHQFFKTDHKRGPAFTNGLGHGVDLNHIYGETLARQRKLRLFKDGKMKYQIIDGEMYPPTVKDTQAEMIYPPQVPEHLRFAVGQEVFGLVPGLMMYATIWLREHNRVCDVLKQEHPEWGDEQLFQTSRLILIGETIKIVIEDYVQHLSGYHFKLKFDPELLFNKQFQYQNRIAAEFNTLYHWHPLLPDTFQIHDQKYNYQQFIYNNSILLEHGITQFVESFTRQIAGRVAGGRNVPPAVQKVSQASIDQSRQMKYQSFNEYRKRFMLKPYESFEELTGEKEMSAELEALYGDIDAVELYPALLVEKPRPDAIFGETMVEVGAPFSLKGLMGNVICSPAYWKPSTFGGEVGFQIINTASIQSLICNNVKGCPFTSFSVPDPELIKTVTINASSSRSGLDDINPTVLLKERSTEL
The experiment in a line: COX-2 inhibition (PGE2 enzyme immunoassay). Type of series: biochemical. The note with it: read-out: % COX-2 inhibition. As to the method:
(§1) The COX-1 inhibitory activity of representative compounds of the invention was determined according to previously reported methods. COX-1 activity was assessed in human platelets using 100 µM arachidonic acid as a substrate and preincubation and incubation times of 15 min at 37 °C in HBSS, 15 mM HEPES pH 7.4 . The quantification method used was enzyme immunoassay determination of PGE2 (Chan, C.C. et al. J Pharmacol Exp Ther, 1999, 290, 551-560; Swinney, D.C. et al. J Biol Chem, 1997, 272, 12393-12398; Warner, T.D. et al. Proc Natl Acad Sci U S A, 1999, 96, 7563-7568; Riendeau, D. et al. Can J Physiol Pharmacol, 1997, 75, 1088-1095). COX-2 inhibitory activity was determined in human recombinant insect Sf21 cells according to references (Warner, T.D. et al., Proc Natl Acad Sci, USA. 1999;96(13):7563-7568; Riendeau, D. et al., Can J Physiol Pharmacol, 1997 ;75(9):1088-1095). Briefly, the COX-2 inhibitory activity was assessed on human recombinant insect Sf21 cells using 0.3 µM arachidonic acid as a substrate and preincubation and incubation times of 15 and 5 min, respectively, at 37 °C in 100 mM Tris-HCl, pH 7.7. The quantification method used was enzyme immunoassay determination of PGE2. Table 11. Inhibition of COX-1 and COX-2 at 10 µM

A short description of series [1]: Maximum Tolerated Dose after acute administration. The note with it: mouse, in vivo, ip, mice. As to the method:
The Maximum Tolerated Dose (MTD) in mice was determined for selected compounds. The protocol of the studies was in accordance with the standard guidelines for drug development: • (htp://dtp.nci.nih.gov/branches/btb/acute tox.html). Table 10. Maximum Tolerated Doses in mice after acute i.p. administration

A further series deals with tumor melanoma B16-FO. The series can be described thus: Tumor cell proliferation assay (alamarBlue). Type of series: cell-based, murine. The note with it: Mus musculus. On the procedure:
Changes in cell proliferation were detected based on the ability of viable cells to cause alamarBlue® to change its oxidized (non-fluorescent, blue) to a reduced (fluorescent, red) form. The alamarBlue® reaction allows the quantification of cell proliferation and examination of the metabolic activity of viable cells. Test substances were examined for activity on the proliferation of human or murine tumor cell lines at assay concentrations from 0.01 to 100 µM.
(Alamar Blue is a resazurin reagent that responds to reducing activity.)

Another series concerns the target T2, COX-1 (Homo sapiens, UniProt P23219).
T2 construct: endogenous in cells; host or cells: human platelets
The series can be described thus: COX-1 inhibition in human platelets (PGE2 enzyme immunoassay). The note with it: read-out: % COX-1 Inhibition. It is filed as biochemical. On the procedure:
as §1

The test system of a further series is mice. The experiment in a line: Formalin test (antinociceptive activity). It is filed as in vivo. The note with it: for Early Response / Late Response: formalin test, dose 10-30 mg/Kg i.p.; for Early Response: early response 0-5 min; for Late Response: late response 20-30 min. As to the method:
The chemical irritant formalin test is used as a chronic pain model in animals. The s.c. administration of formalin to the paw of a mouse produces a biphasic nociceptive behavioral response, an early response (0-5 min after injection) and a late response (20-30 min after injection) (Hunskaar, S., Fasmer, O.B., Hole, K. Formalin test in mice, a useful technique for evaluating mild analgesics. J Neurosci Methods, 1985 ;14(1):69-76).
Aspirine and paracetamol are included as external active references in early and late response. Table 12. Early and late response inhibition in the formalin test.

In a further series the target is T3, Akt3 (PRKBG) (Homo sapiens, UniProt Q9Y243).
T3 construct: host or cells: insect cells
T3 sequence (Q9Y243 whole entry): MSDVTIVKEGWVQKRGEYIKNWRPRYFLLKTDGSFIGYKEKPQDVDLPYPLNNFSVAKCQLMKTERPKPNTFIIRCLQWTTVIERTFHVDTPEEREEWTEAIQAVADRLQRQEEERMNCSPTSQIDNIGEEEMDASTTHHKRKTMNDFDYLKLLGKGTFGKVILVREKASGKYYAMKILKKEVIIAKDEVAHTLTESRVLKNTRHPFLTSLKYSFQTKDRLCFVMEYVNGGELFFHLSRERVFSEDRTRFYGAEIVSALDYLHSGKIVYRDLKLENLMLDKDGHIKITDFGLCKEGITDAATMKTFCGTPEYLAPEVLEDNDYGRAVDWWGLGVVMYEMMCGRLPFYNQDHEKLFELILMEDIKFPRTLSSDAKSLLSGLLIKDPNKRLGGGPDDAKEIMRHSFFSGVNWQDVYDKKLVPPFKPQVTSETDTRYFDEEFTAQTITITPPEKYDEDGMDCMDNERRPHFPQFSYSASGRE
The experiment in a line: Akt3 kinase inhibition ([32P]Crosstide KK). It is filed as biochemical. As to the method: Akt3 activity was obtained in human recombinant insect cells using Crosstide KK 10 µM as a substrate. The incubation buffer was 20 mM MOPS, pH 7.2, 25 mM β-Glycerophosphate, 1 mM DTT, 5 mM EGTA, 20 mM MgCl2, 1 mM Na3VO4 and the preincubation and incubation times 15 and 30 min, respectively, at 37°C. The quantification of inhibition was assessed by the measure of [^32P]Crosstide KK (Laine, J. Et al. J Biol Chem 2002, 277(5), 3743-3751). Table 6. Inhibition of Akt3 (PRKBG) at 10 µM

The test system of another series is tumor liver Hep 3B. The experiment in a line: Tumor cell proliferation assay (alamarBlue). Type of series: cell-based. The note with it: Homo sapiens, Hep3B. In a few lines:
(§2)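 Viable-cell metabolic activity was measured by alamarBlue reduction from the oxidized, non-fluorescent blue form to the reduced, fluorescent red form. Test substances were applied to human or murine tumor cell lines at 0.01 to 100 µM to assess effects on proliferation.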

Another series relates to tumor breast MDA-MB-231. The series can be described thus: Tumor cell proliferation assay (alamarBlue). Type of series: cell-based. The note with it: Homo sapiens. The essentials:
as §2

The next series deals with tumor breast T-47D. The experiment in a line: Tumor cell proliferation assay (alamarBlue). Type of series: cell-based. The note with it: Homo sapiens, T47D. The essentials:
as §2

The test system of the next series is tumor breast MCF-7. The series can be described thus: Tumor cell proliferation assay (alamarBlue). It is filed as cell-based. The note with it: Homo sapiens, MCF7. The essentials: as §2
For a further series, the system named is tumor brain U-87 MG. The experiment in a line: Tumor cell proliferation assay (alamarBlue). Type of series: cell-based. The note with it: Homo sapiens; tumor brain U-87 MG; read-out: IC50. The essentials: as §2
A further series has as its system tumor ovary OVCAR-3. The series can be described thus: Tumor cell proliferation assay (alamarBlue). The note with it: Homo sapiens; tumor ovary OVCAR-3; read-out: IC50. It is filed as cell-based. In a few lines: as §2
A further series deals with tumor colon HCT-116. The series can be described thus: Tumor cell proliferation assay (alamarBlue). Type of series: cell-based. The note with it: Homo sapiens; tumor colon HCT-116; read-out: IC50. The essentials:
as §2

[2] abbreviates: tumor melanoma B16-FO, read-out: IC50.

Structures can show the parent of a compound that is named as a salt. Where two headings read alike, the source gives them in different places.

T2 sequence (P23219 24-599): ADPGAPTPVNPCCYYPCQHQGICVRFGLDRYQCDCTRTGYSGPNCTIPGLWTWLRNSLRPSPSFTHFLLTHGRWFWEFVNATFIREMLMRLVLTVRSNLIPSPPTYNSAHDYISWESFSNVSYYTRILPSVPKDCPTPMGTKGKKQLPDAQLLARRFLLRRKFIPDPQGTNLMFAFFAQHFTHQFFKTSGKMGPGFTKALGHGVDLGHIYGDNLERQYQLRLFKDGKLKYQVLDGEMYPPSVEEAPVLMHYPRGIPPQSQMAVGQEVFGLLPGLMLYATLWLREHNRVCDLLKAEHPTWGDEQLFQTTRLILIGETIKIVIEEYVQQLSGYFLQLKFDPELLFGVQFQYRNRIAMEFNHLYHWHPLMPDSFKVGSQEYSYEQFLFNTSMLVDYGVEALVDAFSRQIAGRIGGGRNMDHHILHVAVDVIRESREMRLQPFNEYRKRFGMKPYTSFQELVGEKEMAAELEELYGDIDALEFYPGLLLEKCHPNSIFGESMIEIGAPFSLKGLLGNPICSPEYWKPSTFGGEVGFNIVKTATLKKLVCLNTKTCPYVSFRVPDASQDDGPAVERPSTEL

As to `C=CCc1ccc(O)c(-c2ccc(OC(CCNC)c3ccccc3)c(CC=C)c2)c1` (centres unmarked) [Example 5, 3',5-Diallvl-4'-13-(methylamino)-1-phenylpropoxy]biphenyl-2-ol hydrochloride], the inhibition (commonly the relative decrease from the control value, in per cent) at 10 µM at COX-2 is 0%; on COX-1 it was 75%; at Akt3 (PRKBG), 101%. For the same molecule, the maximum tolerated dose (MTD) (commonly the largest dose that counted as tolerated) in [1] turned out to be 25 mg/kg. For the same molecule, the IC50 (as a rule, the midpoint of a concentration-inhibition curve) in the series with tumor melanoma B16-FO is 1.6 µM; in the series on tumor liver Hep 3B, 1.9 µM; with tumor breast MDA-MB-231 (MDA-MB-231) it was 2.1 µM; in the series on tumor breast T-47D, 1.6 µM; in the series on tumor breast MCF-7, 4.5 µM. Further, the “Early Response” value with mice is recorded as “slightly active”. The “Late Response” value with mice was “Active”.
Regarding `C=CCc1ccc(O)c(-c2cc(CC=C)ccc2OC(CCNC)c2ccccc2)c1.Cl` (centres unmarked) [Example 1, 5,5'-Diallyl-2'-[3-(methylamino)-1-phenylpropoxy]biphenyl-2-ol hydrochloride], the inhibition at 10 µM came to 0% on COX-2 (at 10 µM); 81% at COX-1 (at 10 µM, human platelets); 99% at Akt3 (PRKBG) (Akt3 (PRKBG), at 10 µM, read-out: % Inhibition). The same molecule displayed an MTD in series [1] of 25 mg/kg. Moreover, the IC50 in the series on tumor melanoma B16-FO (setting [2]) amounted to 1.9 µM; with tumor liver Hep 3B (tumor liver Hep 3B, read-out: IC50), 5.6 µM; in the series with tumor brain U-87 MG, 2 µM; in the series with tumor breast MDA-MB-231 (tumor breast MDA-MB-231, read-out: IC50), 3.3 µM; with tumor ovary OVCAR-3 it was 4.6 µM; in the series with tumor breast T-47D (tumor breast T-47D, read-out: IC50) it was 13 µM. Further, the IC50 came to 1.6 µM in the series on tumor breast MCF-7 (tumor breast MCF-7, read-out: IC50) and 4.3 µM in the series with tumor colon HCT-116. Moreover, the “antinociceptive activity in the formalin test” value in the series on mice (30 mg/kg i.p, early and late phases, potency similar to morphine 10 mg/kg i.p.) is “relevant antinociceptive activity”. The “Early Response” value with mice is reported as “slightly active”. The “Late Response” value in the series on mice is “active”.
With `C=CCc1ccc(O)c(-c2ccc(O)c(CC=C)c2)c1` [Honokiol, reference compound], the inhibition at 10 µM at COX-2 (at 10 µM) was determined as 79%; on COX-1 (at 10 µM, human platelets), 0%. The IC50 in the series on tumor melanoma B16-FO (setting [2]) stood at 30 µM; in the series with tumor brain U-87 MG, 56 µM; in the series with tumor ovary OVCAR-3 it was 38 µM; in the series on tumor colon HCT-116, 17 µM.
